For 61 compounds, IC50 results are on record in patent US8604016B2, “Heterocyclic inhibitors of glutaminase” (Calithera Biosciences Inc., priority 2011, dated 2013).

The experiment deals with recombinant form of Glutaminase 1 (GAC) (Homo sapiens, UniProt O94925). In words: Recombinant Enzyme Assay (GAC coupled to GDH, NADH absorbance, no preincubation). The conditions noted are these: no preincubation; read-out: GAC Delta N2 IC50 no preinc. Format: biochemical. The procedure, abridged:
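GAC (4 nM) in Tris-HCl pH 8.0 with 150 mM K2HPO4, EDTA, BSA, DTT, plus 4 units/ml GDH and 4 mM ADP, without preincubation. Absorbance at 340 nm was read kinetically for 15 min at 20° C. Slopes (mAU/min) were compared with DMSO-only and control-compound wells on the same plate.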
In the case of `CN(C)C(Cc1ccccc1)C(=O)Nc1nnc(CCCCc2nnc(NC(=O)C(Cc3ccccc3)N(C)C)s2)s1` (stereo not shown) [Compound 89], the IC50 was more than 20 µM. `O=C(Nc1nnc(CCSCCc2nnc(NC(=O)C3Cc4cc(Br)ccc4O3)s2)s1)C1Cc2cc(Br)ccc2O1` (stereo not shown) [Compound 118]: the IC50 was 5 µM. With `COc1ccc(CC(=O)Nc2nnc(CCSCCc3nnc(NC(=O)Cc4ccc(OC)c(OC)c4)s3)s2)cc1OC` [Compound 157], the IC50 is 0.34 µM. In the case of `CC(=O)Nc1nnc(CCSCCc2nnc(N)s2)s1` [Compound 357], the IC50 was more than 20 µM. As for `CC(C)(C)OC(=O)Nc1cccc(CC(=O)Nc2nnc(CCCCc3nnc(NC(=O)Cc4cccc(NC(=O)OC(C)(C)C)c4)s3)s2)c1` [Compound 327], the IC50 was more than 20 µM. For `CC(O)(C(=O)Nc1nnc(CCSCCc2nnc(NC(=O)C(C)(O)C(F)(F)F)s2)s1)C(F)(F)F` (stereo not shown) [Compound 109], the IC50 is more than 20 µM. As to `NS(=O)(=O)c1ccc(CC(=O)Nc2nnc(CCSCCc3nnc(NC(=O)Cc4ccc(S(N)(=O)=O)cc4)s3)s2)cc1` [Compound 217], the IC50 was 0.24 µM.

Regarding `COCC(C(=O)Nc1nnc(CCCCc2nnc(NC(=O)C(COC)c3ccccc3)s2)s1)c1ccccc1` (stereo not shown) [Compound 165], the IC50 was determined as 0.51 µM. As for `O=C(Nc1nnc(CCCCc2nnc(NC(=O)[C@H](O)Cc3ccccc3)s2)s1)[C@H](O)Cc1ccccc1` [Compound 169], the IC50 came to 0.71 µM. As for `CC(C)(C)c1ccc(CC(=O)Cc2nnc(CCCCc3nnc(NC(=O)Cc4ccc(C(C)(C)C)cc4)s3)s2)cc1` [Compound 191], the IC50 was more than 20 µM. As for `O=C(Nc1nnc(CCCCc2nnc(NC(=O)C(OCCO)c3ccccc3)s2)s1)C(OCCO)c1ccccc1` (stereo not shown) [Compound 252], the IC50 was determined as 1.2 µM.

For `O=C(Nc1nnc(CCCCc2nnc(NC(=O)C3(c4ccccc4)CC3)s2)s1)C1(c2ccccc2)CC1` [Compound 168], the IC50 worked out at 1.3 µM. For the compound `O=C(Nc1nnc(CCCCc2nnc(NC(=O)[C@@H]3CC3c3ccccc3)s2)s1)C1CC1c1ccccc1` (stereo partly shown) [Compound 90], the IC50 was more than 20 µM. Consider `C[C@@H](O)[C@H](N)C(=O)Nc1nnc(CCSCCc2nnc(NC(=O)[C@@H](N)[C@@H](C)O)s2)s1` [Compound 139], for which the IC50 is more than 20 µM. As for `O=C(Nc1nnc(CCSCCc2nnc(NC(=O)c3ccccc3CO)s2)s1)c1ccccc1CO` [Compound 180], the IC50 is 8.8 µM. With `O=C(Nc1nnc(CCCCc2nnc(NC(=O)[C@@H](O)[C@H](O)c3ccccc3)s2)s1)[C@@H](O)[C@H](O)c1ccccc1` [Compound 226], the IC50 was 2.3 µM.

As for `CC(C)[C@H](NC(=O)OC(C)(C)C)C(=O)Nc1nnc(CCSCCc2nnc(NC(=O)Cc3ccccc3)s2)s1` [Compound 33], the IC50 was found to be 13 µM. Take `CC(C)[C@H](N)C(=O)Nc1nnc(CCSCCc2nnc(NC(=O)Cc3ccccc3)s2)s1` [Compound 32]: the IC50 came out at 7 µM.

For the compound `CS(=O)(=O)c1cccc(CC(=O)Nc2nnc(CCSCCc3nnc(NC(=O)Cc4cccc(S(C)(=O)=O)c4)s3)s2)c1` [Compound 158], the IC50 was 0.22 µM. With `O=C(Nc1nnc(CCSCCc2nnc(NC(=O)C3Cc4ccccc4O3)s2)s1)C1Cc2ccccc2O1` (stereo not shown) [Compound 50], the IC50 came out at 2.5 µM. In the case of `CC(C)(C)c1ccc(CC(=O)Nc2nnc(CCSCCc3nnc(NC(=O)Cc4ccc(C(C)(C)C)cc4)s3)s2)cc1` [Compound 184], the IC50 was more than 20 µM.

Take `CC1(C)O[C@H](C(=O)Nc2nnc(CCCCc3nnc(NC(=O)[C@H]4OC(C)(C)O[C@@H]4c4ccccc4)s3)s2)[C@@H](c2ccccc2)O1` [Compound 224]: the IC50 is more than 20 µM. For `CCCCOC(=O)Nc1nnc(CCCCc2nnc(NC(=O)Cc3ccccc3)s2)s1` [Compound 388] the value was 0.21 µM; for `COc1ccccc1CC(=O)Nc1nnc(CCSCc2nnc(NC(=O)Cc3ccccc3OC)s2)s1` [Compound 249], 0.12 µM; for `O=C(Nc1nnc(CCSCCc2nnc(NC(=O)C3CCOC3)s2)s1)C1CCOC1` (stereo not shown) [Compound 95], 2.9 µM. As to `CC(C)(C)OC(=O)NC(C(=O)Nc1nnc(CCSCCc2nnc(NC(=O)C(NC(=O)OC(C)(C)C)C3CCCC3)s2)s1)C1CCCC1` (stereo not shown) [Compound 110], the IC50 was more than 20 µM. With `O=C(Nc1nnc(CCCCc2nnc(NC(=O)[C@H](O)[C@@H](O)c3ccccc3)s2)s1)[C@H](O)[C@@H](O)c1ccccc1` [Compound 225], the IC50 is more than 20 µM.

Take `O=C(CCN1CCOCC1)OC(C(=O)Nc1nnc(CCCCc2nnc(NC(=O)C(OC(=O)CCN3CCOCC3)c3cccc(Cl)c3)s2)s1)c1cccc(Cl)c1` (stereo not shown) [Compound 332]: the IC50 came to 3.3 µM. As to `O=C(CCC(C(=O)O)c1ccccc1)Nc1nnc(CCSCCc2nnc(NC(=O)CCC(C(=O)O)c3ccccc3)s2)s1` (stereo not shown) [Compound 179], the IC50 is 3.1 µM.

In the case of `CCCC(=O)OCN(C(=O)Cc1ccccc1)c1nnc(CCSCCc2nnc(N(COC(=O)CCC)C(=O)Cc3ccccc3)s2)s1` [Compound 8], the IC50 was more than 50 µM. Take `COc1ccccc1-c1cccc(CC(=O)Nc2nnc(CCCCc3nnc(NC(=O)Cc4cccc(-c5ccccc5OC)c4)s3)s2)c1` [Compound 326]: the IC50 was more than 20 µM. For the compound `CC(C)COC(=O)Nc1nnc(CCCCc2nnc(NC(=O)Cc3ccccc3)s2)s1` [Compound 370], the IC50 came out at 0.28 µM. `O=C(CC1CCNCC1)Nc1nnc(CCCCc2nnc(NC(=O)CC3CCNCC3)s2)s1` [Compound 132]: the IC50 is more than 20 µM. Turning to `O=C(C[C@@H](O)C(=O)O)Nc1nnc(CCCCc2nnc(NC(=O)C[C@@H](O)C(=O)O)s2)s1` [Compound 154], the IC50 was 19 µM.

Take `CN(C)c1ccc(CC(=O)Nc2nnc(CCSCCc3nnc(NC(=O)Cc4ccc(N(C)C)cc4)s3)s2)cc1` [Compound 162]: the IC50 worked out at 0.23 µM.

In the case of `CC1(C)OCC(C(=O)Nc2nnc(CCCCc3nnc(NC(=O)C4(c5ccccc5)COC(C)(C)O4)s3)s2)(c2ccccc2)O1` (stereo not shown) [Compound 277], the IC50 is more than 20 µM. For `CC1(C)OC(=O)[C@@H](CC(=O)Nc2nnc(CCCCc3nnc(NC(=O)C[C@H]4OC(C)(C)OC4=O)s3)s2)O1` [Compound 103] the value was 19 µM; for `CC(C)(C)OC(=O)N1CCN(C(C(=O)Nc2nnc(CCCCc3nnc(NC(=O)C(c4ccccc4)N4CCN(C(=O)OC(C)(C)C)CC4)s3)s2)c2ccccc2)CC1` (stereo not shown) [Compound 63], 25 µM; for `C[C@H](NC(=O)OC(C)(C)C)C(=O)Nc1nnc(CCSCCc2nnc(NC(=O)[C@H](C)NC(=O)OC(C)(C)C)s2)s1` [Compound 49], 36 µM. As for `O=C(Nc1nnc(CCCc2nnc(NC(=O)C(O)Cc3ccccc3)s2)s1)C(O)Cc1ccccc1` (stereo not shown) [Compound 170], the figure is 7.4 µM. As to `O=C(Nc1nnc(CCSCCc2nnc(NC(=O)[C@@H]3CCCN3C(=O)C(F)(F)F)s2)s1)[C@@H]1CCCN1C(=O)C(F)(F)F` [Compound 22], the IC50 is more than 50 µM. As to `O=C(CC1CC1)Nc1nnc(CCSCCc2nnc(NC(=O)CC3CC3)s2)s1` [Compound 83], the IC50 was determined as 3.9 µM. For the compound `O=C(Nc1nnc(CCSCCc2nnc(NC(=O)C3CCCC3)s2)s1)C1CCCC1` [Compound 40], the IC50 is 3.7 µM. On to `COCC(C(=O)Nc1nnc(CCSCCc2nnc(NC(=O)C(COC)c3ccccc3)s2)s1)c1ccccc1` (stereo not shown) [Compound 204], for which the IC50 was 0.92 µM.

For the compound `COc1ccc2c(c1)CC(C(=O)Nc1nnc(CCSCCc3nnc(NC(=O)C4Cc5cc(OC)ccc5O4)s3)s1)O2` (stereo not shown) [Compound 117], the IC50 is 2.4 µM. Turning to `O=C(Nc1nnc(CCCCc2nnc(NC(=O)C3(c4cccs4)CCOCC3)s2)s1)C1(c2cccs2)CCOCC1` [Compound 167], the IC50 came out at 11 µM.

For `O=C(Cc1ccccn1)Nc1nnc(CCSCCc2nnc(NC(=O)Cc3ccccn3)s2)s1` [Compound 308], the IC50 is 0.6 µM.

Consider `O=C(Cc1cccs1)Nc1nnc(CCSCCc2nnc(NC(=O)Cc3cccs3)s2)s1` [Compound 116], for which the IC50 is 0.24 µM. For `CC(=O)OC(C(=O)Nc1nnc(CCCCc2nnc(NC(=O)C(OC(C)=O)c3ccccc3)s2)s1)c1ccccc1` (stereo not shown) [Compound 173], the IC50 was 24 µM. As for `O=C(Nc1nnc(CCSCCc2nnc(NC(=O)C3CCc4ccccc4C3)s2)s1)C1CCc2ccccc2C1` (stereo not shown) [Compound 37], the IC50 is more than 50 µM. Regarding `O=C(Cn1cccn1)Nc1nnc(CCCCc2nnc(NC(=O)Cn3cccn3)s2)s1` [Compound 60], the IC50 was 24 µM. Turning to `O=C(Cc1ccc2ncccc2c1)Nc1nnc(CCSCCc2nnc(NC(=O)Cc3ccc4ncccc4c3)s2)s1` [Compound 268], the IC50 came out at 0.6 µM. In the case of `CC(=O)OC(C(=O)Nc1nnc(CCCc2nnc(NC(=O)C(OC(C)=O)c3ccccc3)s2)s1)c1ccccc1` (stereo not shown) [Compound 171], the IC50 was more than 20 µM.

Take `CC(C(=O)Nc1nnc(CCCCc2nnc(NC(=O)C(C)c3ccccc3Cl)s2)s1)c1ccccc1Cl` (stereo not shown) [Compound 274]: the IC50 worked out at 0.75 µM.

Take `CC(=O)O[C@H](C(=O)Nc1nnc(CCSCCc2nnc(NC(=O)[C@@H](OC(C)=O)c3ccccc3)s2)s1)c1ccccc1` [Compound 71]: the IC50 was more than 50 µM. `O=C(Cc1ccncc1)Nc1nnc(CCSCCc2nnc(NC(=O)Cc3ccncc3)s2)s1` [Compound 361]: the IC50 was 1.8 µM. As for `O=C(OCC(C(=O)Nc1nnc(CCCCc2nnc(NC(=O)C(COC(=O)C3CCN(C(=O)OCc4ccccc4)CC3)c3ccccc3)s2)s1)c1ccccc1)C1CCN(C(=O)OCc2ccccc2)CC1` (stereo not shown) [Compound 301], the figure is more than 20 µM; as for `CC(C)(C)OC(=O)N1CCC(CC(=O)Nc2nnc(CCSCCc3nnc(NC(=O)CC4CCN(C(=O)OC(C)(C)C)CC4)s3)s2)CC1` [Compound 111], 0.95 µM. Regarding `O=C(Nc1nnc(CCCc2nnc(NC(=O)C(CO)c3ccccc3)s2)s1)C(CO)c1ccccc1` (stereo not shown) [Compound 176], the IC50 was 0.57 µM. For the compound `Cn1cc(CC(=O)Nc2nnc(CCSCCc3nnc(NC(=O)Cc4cn(C)c5ccccc45)s3)s2)c2ccccc21` [Compound 200], the IC50 amounted to 0.61 µM. As for `O=C(Cc1ccccc1)Nc1nnc(CCSCc2nnc(NC(=O)Cc3ccccn3)s2)s1` [Compound 373], the IC50 is 0.17 µM.
